According to PubChem BioAssay (NCI):
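Where inhibition never reached the appropriate level, the endpoint shown equals the highest concentration tested. Otherwise, values were interpolated linearly from a five-concentration, 48-hour dose response in 96-well plates. At the GI50, growth is halved. TGI: concentration producing complete growth inhibition.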

Legend:
Experiment in all cases: NCI anticancer screen, dose series, 48 h
[1] = system: ACHN renal
[2] = system: SK-MEL-5 melanoma
[3] = system: M14 melanoma
[4] = system: SW-620 colon
[5] = system: HCT-15 colon
[6] = system: MDA-MB-435
[7] = system: SN12C renal
[8] = system: CAKI-1 renal
[9] = system: K-562 leukemia
[10] = system: HL-60(TB) leukemia

Row | Compound | GI50 [1] [µM] | TGI [1] [µM] | GI50 [2] [µM] | TGI [2] [µM] | GI50 [3] [µM] | TGI [3] [µM] | GI50 [4] [µM] | TGI [4] [µM] | GI50 [5] [µM] | TGI [5] [µM] | GI50 [6] [µM] | TGI [6] [µM] | GI50 [7] [µM] | TGI [7] [µM] | GI50 [8] [µM] | TGI [8] [µM] | GI50 [9] [µM] | TGI [9] [µM] | TGI [10] [µM] | GI50 [10] [µM]
1 | CCCCCCCCCCCCC(NC(C)=O)(C(=O)OCC)C(=O)OCC | 12.6 | 25.3 | 3.87 | 16 | 12.7 | 27.3 | 13 | 26.9 | 9.38 | 23 | 12.6 | 31.7 | 10.2 | 22 | 10.6 | 27.4 | 7.55 | > 100 |  | 
2 | CCN(CC)/[N+]([O-])=N/OCC(C)O (centres undefined) |  | > 100 |  | > 100 |  | > 100 |  | > 100 |  | > 100 |  |  |  | > 100 |  | > 100 |  | > 100 | > 100 | 
3 | COc1cc2c(cc1OC)-c1ncc3cc(OC)c(OC)c(OC)c3c1C2 | 32 | > 100 | 1.68 | 3.05 | 45.2 | > 100 | 38.7 | > 100 | 35.4 | > 100 | 16.2 | 42.6 | 14.4 | 47.9 | 20.5 | 86.1 | 3.89 | 48.6 |  | 
4 | N/C(=N\N=C\c1ccc(O)c(O)c1)NO |  | > 100 |  | > 100 |  | > 100 |  | > 100 |  | > 100 |  |  |  | > 100 |  | > 100 |  | > 100 | > 100 | 
5 | Cc1ccc2c(c1)-c1oc(=O)c(-c3cc4ccccc4oc3=O)cc1C(O)O2 (centres undefined) | 10.2 | 24.4 | 19.1 | 33.2 | 21.4 | 40.6 | 18.9 | 33.5 | 23.9 | 48.8 | 19.2 | 45.6 | 19.7 | 45 | 20.5 | 46.7 | 26.2 | 76.6 |  | 
6 | CC(CCC(=O)O)c1ccc(Br)cc1 (centres undefined) |  | > 100 |  | > 100 |  | > 100 |  | > 100 |  | > 100 |  |  |  | > 100 |  | > 100 |  | > 100 | > 100 | 
7 | O=C(CC1SC(=Nc2ccccc2Cl)NC1=O)Nc1ccc(Cl)cc1 (centres undefined) |  | > 100 |  | > 100 |  | > 100 |  | 28.4 |  | 30.8 |  |  |  | > 100 |  | > 100 |  | > 100 | > 100 | 
8 | C/C=C(\C)C(=O)N1c2ccccc2CC1c1c(C)[nH]c2ccccc12 (centres undefined) |  | > 100 |  |  |  | > 100 |  | > 100 |  | > 100 |  |  |  | > 100 |  | > 100 |  | > 100 | > 100 | 
9 | Fc1ccc2c(c1)cc1ccc3cccc4ccc2c1c34 |  | > 100 |  | > 100 |  | > 100 |  | > 100 |  |  |  |  |  | > 100 |  | > 100 |  | > 100 | > 100 | 
10 | CCOC(=O)NC(=O)c1cn(C2OC(COC(=O)CCCCCCCCC(=O)OCC3OC(n4cc(C(=O)NC(=O)OCC)c(=O)[nH]c4=O)C4OC(C)(C)OC34)C3OC(C)(C)OC32)c(=O)[nH]c1=O (centres undefined) |  | > 100 |  | > 100 |  | > 100 |  | > 100 |  | > 100 |  |  |  | > 100 |  | > 100 |  | > 100 | > 100 | 
11 | COc1ccc(C(=O)c2cc(C)c(OC)c(C)c2)c(OC)c1N(C(=O)CCl)C(=O)CCl | 0.0773 | 36.7 | 0.0554 | 1.96 | 0.0365 | 0.531 | 0.0432 | 19.3 | 0.0537 | 14.2 |  |  | 0.0831 | 20.9 | 0.0414 | 33.5 | 0.0557 | > 100 | 0.106 | 0.0316
12 | CC1=CC2=C(C#N)C(=O)OC2(C)C(c2ccccc2)C1 (centres undefined) |  | > 100 |  |  |  | > 100 |  | > 100 |  | > 100 |  | > 100 |  | > 100 |  |  |  | > 100 |  | 
13 | CCCCCN(CCCCC)C(=O)[C@H](CCC(=O)OCc1ccccc1)NC(=O)c1cc2ccccc2[nH]1 |  | > 100 |  |  |  | > 100 |  | > 100 |  | > 100 |  |  |  | > 100 |  | > 100 |  | > 100 | > 100 | 
14 | CN=C(N)NC |  | > 100 |  | > 100 |  | > 100 |  | > 100 |  | > 100 |  |  |  | > 100 |  |  |  | > 100 | > 100 | 
15 | CCN(CC)CCOc1ccc(Cc2ccccc2)cc1 | 47.2 | > 100 | 15.1 | 28.5 | 17.3 | 34.6 | 17.4 | 42.4 | 15.1 | 53.9 | 18.5 | 44.2 | 48.8 | > 100 | 29.5 | > 100 |  |  |  | 
16 | N.N.NCCCCCN.O=C([O-])CC(=O)[O-].O=C([O-])CC(=O)[O-].[Pt+4].[Pt+4] | 66.6 | > 100 | > 100 | > 100 | > 100 | > 100 | > 100 | > 100 | > 100 | > 100 |  |  | 45.6 | > 100 |  |  | > 100 | > 100 | > 100 | 39.6
17 | Cn1cc2ccccc2c1-c1nc(F)nc(Nc2ccc(N)cc2)n1 |  | 68 |  | 25 |  | 27.3 |  | 35 |  | 26.3 |  |  |  | 47.4 |  | 45 |  | > 100 | > 100 | 
18 | CC(=O)Oc1cc(Cl)c(OC(C)=O)c2c(OC(C)=O)c(C)c(O[Si](C)(C)C(C)(C)C)cc12 |  |  |  | 14.6 |  | 19.6 |  | 8.85 |  | 20.3 |  |  |  | 23.1 |  | 30.7 |  | 18.2 | 8.89 | 
19 | Nc1nc(CC2(O)CCCCC2)cc(-c2ccccc2)n1 |  | > 100 |  | > 57.4 |  | > 31.6 |  | 65 |  | > 75.5 |  |  |  | 37.4 |  | > 100 |  | > 100 | 47.9 | 
